Source: publication PMC9232612, “A phase 1b randomised controlled trial of a glucagon-like peptide-1 and glucagon receptor dual agonist IBI362 (LY3305677) in Chinese patients with type 2 diabetes” (Nature Communications, 2022)
Values joined by “and” are separate entries in the source; they are usually repeats but may differ in a detail not shown here. Equal values may be shown once.

What was measured:
Format in all cases: in vivo, human
[1] = system: Chinese patients with T2D; assay: Treatment-emergent adverse events (MedDRA SOC/preferred term), 12-week once-weekly s.c. treatment plus 8-week safety follow-up, phase 1b
Description: The study included a 3-week screening period, a 12-week treatment period and an 8-week safety follow-up period. During the 12-week treatment period, IBI362 or placebo was subcutaneously administered once weekly with one of the three dose-escalation schedules: 1.0–2.0–3.0 mg for the 3.0 mg cohort, 1.5–3.0–4.5 mg for the 4.5 mg cohort and 2.0–4.0–6.0 mg for the 6.0 mg cohort (each dose level administered for 4 weeks). The 6.0 mg cohort started dosing after tolerability evaluation of 1.5 mg dosing in the 4.5 mg cohort. The internal unblinded safety monitoring group was responsible for the safety monitoring. Dulaglutide was subcutaneously administered once weekly at a fixed dose of 1.5 mg. Patients who were on metformin prior to the enrolment of this trial were required to continue their previous dose of metformin throughout the trial. Investigators and authorized study personnel in each centre recorded the study data into the electronic case report forms (eCRFs), which were reviewed and validated by clinical research associates. The data in the eCRFs were submitted to the electronic data capture database.
Primary outcomes of the study were the safety and tolerability of IBI362. Safety assessment included adverse events, physical examinations, laboratory tests (including lipase, amylase and calcitonin level measures), vital signs and 12-lead electrocardiogram. Adverse events were categorized according to the Medical Dictionary for Regulatory Activities system organ classes (SOCs) and preferred terms. Treatment-emergent adverse events (TEAEs) were monitored from the time of informed consent to the safety follow-up period. The severity of TEAEs (mild, moderate or severe) and the association between an event and the study drug were assessed by investigators based on pre-specified criteria.
Safety analyses were done in the safety population (defined as all patients who received at least one dose of the study treatment). Pharmacokinetic analyses were done in the pharmacokinetic population (defined as all patients who received at least one dose of IBI362 and had at least one valid plasma concentration assessment).

[2] = system: Chinese patients with T2D; assay: Mixed-meal tolerance test (MTT): C peptide
Description: HbA1c (2200101, Bio-Rad, USA), blood glucose (05168791190, Roche Diagnostics, Germany), insulin (12017547122, Roche Diagnostics, Germany), C peptide (03184897190, Roche Diagnostics, Germany), total GLP-1 (GLP-1 [7–36] amide and its metabolite, GLP-1 [9–36] amide, 10-1278-01, Mercodia AB, Sweden) and OXM (AL-139, AnshLabs, USA) tests were performed according to the manufactures’ instruction manuals in a central laboratory (KingMed Diagnostics, Guangzhou, China). HbA1c was measured using a Bio-rad D-100 Haemoglobin Testing System (Bio-rad). Blood glucose was measured using a Roche Cobas c702 analyser (Roche Diagnostics). Insulin and C peptide were measured using a Roche […] analyser (Roche Diagnostics). GLP-1 and OXM were measured using a Tecan Infinite M Plex microplate reader (TECAN).
Standard non-compartmental pharmacokinetics methods were used to analyze IBI362 plasma concentration data using Pkanalix 2020R1 (Lixoft, Antony, France). Secondary efficacy outcomes included change from baseline to week 12 in HbA1c, fasting plasma glucose (FPG), fasting insulin levels, change from baseline to week 12 in post-mixed-meal tolerance test (post-MTT) glucose, insulin, C peptide, GLP-1 and OXM levels, as well as seven-point self-measured blood glucose (SMBG) profile.
IBI362 Innovent Biologics (Suzhou) Co., Ltd. CIBI362A101
3. Standard meal test (MTT) collection measures included: insulin, C-peptide, plasma glucose, glucagon, endogenous OXM, and endogenous GLP-1. The sampling points include: fasting, 30 min, 1h, 2h, 3h and 4h.
A total of 9 mL blood will be collected from each blood collection point. See the manual of the central laboratory for the detailed operation process. Fasting state refers to fasting for 10 hours. [ The standard meal is
instant noodles. The master Kang roast beef noodles (bucket noodles) purchased by the sponsor in a unified manner are removed from the oil bag. The noodles are soaked in boiled water and then removed. The seasoning
bag is added and mixed well. The time is counted from the first bite of eating. The noodles are eaten within 10 minutes, and 200 mL of water is drunk; or the instant noodles are directly opened with 200 mL of boiled
water to ensure that the noodles are eaten and the water or soup is drunk]. Visit days when MTT test is performed: 1 day prior to Cycle 1 administration, Day 80 (D80).
4. If the patient experiences drug-related adverse events during dose escalation and meets the protocol-specified tolerance criteria, dose adjustment is required at the investigator's discretion, and a standard meal test
should be performed 48 hours after the first dose after dose adjustment.
● Test by central laboratory

Body weight = conditions: for Percent change from baseline to week 12 in body weight, single patients: each line a single patient; for Percent change from baseline in body weight, LS mean / Percent change from baseline in body weight, LS mean (SE): n=8; for Percent change from baseline in body weight, LS mean / Percent change from baseline in body weight, LS mean (SE) / Body weight (percent CFB): ETD versus placebo, LS mean (90% CI): MMRM; for Percent change from baseline in body weight, LS mean (SE) / Body weight (percent CFB): ETD versus placebo, LS mean (90% CI): week 12
Description: (§1) Exploratory outcomes included change from baseline in body weight, waist circumference, body-mass index (BMI) and change in homeostatic model assessment of β-cell function (HOMA-β) and insulin resistance (HOMA-IR).
The analyses for change from baseline in HbA1c, FPG, post-MTT glucose AUC0–4 h and body weight were performed using the mixed-effect model for repeated measures (MMRM) with least-squares means and standard error provided. The MMRM included the corresponding baseline value, treatment, visit and treatment-by-visit as fixed effects and patient as a random effect. Mean change or mean percent change from baseline were analysed using a restricted maximum likelihood (REML)‐based repeated measures approach in combination with the Newton Raphson Algorithm. The fix effect of visit was fitted as a repeated effect and an unstructured covariance matrix was used. In case of non-converge, matrix like Variance Components and Compound Symmetry will be tested in a subsequent order until model‐convergence is achieved. The Kenward-Roger degree of freedom was used in estimating fixed effects. No missing data imputation was conducted. For HbA1c, FPG and body weight, point estimate of treatment difference versus placebo and 90% CI were provided for each IBI362 dose group and the dulaglutide group, with nominal p values.

[3] = system: Chinese patients with T2D; assay: Homeostatic model assessment of β-cell function (HOMA-β); conditions: for Change from baseline to week 12 in HOMA-β, individual: single patients
Source text: as §1

[4] = system: Chinese patients with T2D; assay: Homeostatic model assessment of insulin resistance (HOMA-IR); conditions: for Change from baseline to week 12 in HOMA-IR, individual: single patients
Source text: as §1

## CC(C)C[C@H](NC(=O)[C@H](CC(C)C)NC(=O)[C@H](Cc1c[nH]c2ccccc12)NC(=O)[C@H](CCC(=O)O)NC(=O)[C@@H](NC(=O)[C@H](Cc1ccccc1)NC(=O)[C@H](CCC(=O)O)NC(=O)[C@H](CCCCNC(=O)COCCOCCNC(=O)COCCOCCNC(=O)CC[C@H](NC(=O)CCCCCCCCCCCCCCCCCCC(=O)O)C(=O)O)NC(=O)[C@H](C)NC(=O)[C@H](CCCCN)NC(=O)[C@H](CCCCN)NC(=O)[C@H](CCC(=O)O)NC(=O)[C@H](CC(=O)O)NC(=O)[C@H](CC(C)C)NC(=O)[C@H](Cc1ccc(O)cc1)NC(=O)[C@H](CCCCN)NC(=O)[C@H](CO)NC(=O)[C@H](Cc1ccc(O)cc1)NC(=O)[C@H](CC(=O)O)NC(=O)[C@H](CO)NC(=O)[C@@H](NC(=O)[C@H](Cc1ccccc1)NC(=O)[C@@H](NC(=O)CNC(=O)[C@H](CCC(N)=O)NC(=O)C(C)(C)NC(=O)[C@@H](N)Cc1c[nH]cn1)[C@@H](C)O)[C@@H](C)O)C(C)C)C(=O)N[C@@H](CCC(=O)O)C(=O)NCC(=O)NCC(=O)N1CCC[C@H]1C(=O)N[C@@H](CO)C(=O)N[C@@H](CO)C(=O)NCC(N)=O [IBI362]
[1]; 4.5 mg group, 10 events
  median time to resolution of gastrointestinal adverse events (diarrhoea, nausea and vomiting): 3.5 days
[1]; 6.0 mg group, 11 events
  median time to resolution of gastrointestinal adverse events (diarrhoea, nausea and vomiting): 4 days
[1]; 3.0, 4.5 and 6.0 mg dose-escalation regimens
  tolerability: well tolerated
[2]; week 12, 0 min, 3.0 mg cohort, n=7
  C peptide during MTT, mean: 2.67 ng/mL
[2]; week 12, 0 min, 4.5 mg cohort, n=5
  C peptide during MTT, mean: 2.81 ng/mL
[2]; week 12, 0 min, 6.0 mg cohort, n=8
  C peptide during MTT, mean: 2.79 ng/mL
[2]; week 12, 30 min, 3.0 mg cohort, n=7
  C peptide during MTT, mean: 3.41 ng/mL
[2]; week 12, 30 min, 4.5 mg cohort, n=5
  C peptide during MTT, mean: 3.46 ng/mL
[2]; week 12, 30 min, 6.0 mg cohort, n=8
  C peptide during MTT, mean: 3.54 ng/mL
[2]; week 12, 60 min, 3.0 mg cohort, n=7
  C peptide during MTT, mean: 5.15 ng/mL
[2]; week 12, 60 min, 4.5 mg cohort, n=5
  C peptide during MTT, mean: 4.85 ng/mL
[2]; week 12, 60 min, 6.0 mg cohort, n=8
  C peptide during MTT, mean: 5.24 ng/mL
[2]; week 12, 120 min, 3.0 mg cohort, n=7
  C peptide during MTT, mean: 8.22 ng/mL
[2]; week 12, 120 min, 4.5 mg cohort, n=5
  C peptide during MTT, mean: 6.34 ng/mL
[2]; week 12, 120 min, 6.0 mg cohort, n=8
  C peptide during MTT, mean: 8.25 ng/mL
[2]; week 12, 180 min, 3.0 mg cohort, n=7
  C peptide during MTT, mean: 7.74 ng/mL
[2]; week 12, 180 min, 4.5 mg cohort, n=5
  C peptide during MTT, mean: 7.22 ng/mL
[2]; week 12, 180 min, 6.0 mg cohort, n=8
  C peptide during MTT, mean: 7.50 ng/mL
[2]; week 12, 240 min, 3.0 mg cohort, n=7
  C peptide during MTT, mean: 5.91 ng/mL
[2]; week 12, 240 min, 4.5 mg cohort, n=5
  C peptide during MTT, mean: 5.24 ng/mL
[2]; week 12, 240 min, 6.0 mg cohort, n=8
  C peptide during MTT, mean: 5.41 ng/mL
Body weight; across IBI362 cohorts
  body weight reductions from baseline to week 12 (up to): up to 5.4%
Body weight; 3.0 mg cohort
  Percent change from baseline to week 12 in body weight, single patients: -0.9% and -2.2% and 0.6% and -1.0% and 0.0% and -5.1%
  Percent change from baseline in body weight, LS mean (SE): −0.9 (1.3) % and −0.9%
  Body weight (percent CFB): ETD versus placebo, LS mean (90% CI): 0.1 ( −2.6, 2.8) %
Body weight; 4.5 mg cohort
  Percent change from baseline to week 12 in body weight, single patients: -15.9% and -3.7% and 1.3% and -1.6% and -6.0%
  Percent change from baseline in body weight, LS mean (SE): -5.0%
  Body weight (percent CFB): ETD versus placebo, LS mean (90% CI): −4.0 (−6.7, −1.2) % and −4.0%
Body weight; week 4, 3.0 mg cohort
  Percent change from baseline in body weight, LS mean: 0.1%
Body weight; week 4, 4.5 mg cohort
  Percent change from baseline in body weight, LS mean: -1.1%
Body weight; week 4, 6.0 mg cohort
  Percent change from baseline in body weight, LS mean: -1.7%
Body weight; week 8, 3.0 mg cohort
  Percent change from baseline in body weight, LS mean: -0.2%
Body weight; week 8, 4.5 mg cohort
  Percent change from baseline in body weight, LS mean: -2.1%
Body weight; week 8, 6.0 mg cohort
  Percent change from baseline in body weight, LS mean: -3.3%
Body weight; 6.0 mg cohort
  Percent change from baseline in body weight, LS mean (SE): -5.4%
  Body weight (percent CFB): ETD versus placebo, LS mean (90% CI): −4.4 (−7.0, −1.7) % and −4.4%
[3]; 3.0 mg cohort, n=7
  Change from baseline to week 12 in HOMA-β, mean: 9.2%
  Change from baseline to week 12 in HOMA-β, individual: -8.1% and 15.7% and 23.0% and -3.8% and 14.4% and 16.4% and 6.9%
[3]; 4.5 mg cohort, n=5
  Change from baseline to week 12 in HOMA-β, mean: 26.4%
  Change from baseline to week 12 in HOMA-β, individual: -9.6% and 82.4% and -0.3% and 47.8% and 11.6%
[3]; 6.0 mg cohort, n=8
  Change from baseline to week 12 in HOMA-β, mean: 21.0%
  Change from baseline to week 12 in HOMA-β, individual: -6.2% and 6.9% and 72.2% and 5.4% and 33.9% and 27.9% and -1.8% and 29.8%
[4]; 3.0 mg cohort, n=7
  Change from baseline to week 12 in HOMA-IR, mean: -2.1
  Change from baseline to week 12 in HOMA-IR, individual: -4.8 and -1.3 and -2.3 and -1.2 and -2.4
[4]; 4.5 mg cohort, n=5
  Change from baseline to week 12 in HOMA-IR, mean: -1.5
  Change from baseline to week 12 in HOMA-IR, individual: -2.8 and -5.0 and -1.9 and 2.5 and -0.5
[4]; 6.0 mg cohort, n=8
  Change from baseline to week 12 in HOMA-IR, mean: -5.4
  Change from baseline to week 12 in HOMA-IR, individual: -1.9 and -5.3 and -0.4 and -4.2 and -1.1 and -1.0 and -22.2 and -7.0
